Experimental findings from patent US11629136B1, “Substituted pyridine derivatives as SARM1 inhibitors” (Nura Bio, Inc., priority 2021, dated 2023) are described below.

Structures can show the parent of a compound that is named as a salt.

As usually defined, the IC50 is the midpoint of a concentration-inhibition curve.

Sequence of human SARM1(50-724) (Q6SZW1 50-724): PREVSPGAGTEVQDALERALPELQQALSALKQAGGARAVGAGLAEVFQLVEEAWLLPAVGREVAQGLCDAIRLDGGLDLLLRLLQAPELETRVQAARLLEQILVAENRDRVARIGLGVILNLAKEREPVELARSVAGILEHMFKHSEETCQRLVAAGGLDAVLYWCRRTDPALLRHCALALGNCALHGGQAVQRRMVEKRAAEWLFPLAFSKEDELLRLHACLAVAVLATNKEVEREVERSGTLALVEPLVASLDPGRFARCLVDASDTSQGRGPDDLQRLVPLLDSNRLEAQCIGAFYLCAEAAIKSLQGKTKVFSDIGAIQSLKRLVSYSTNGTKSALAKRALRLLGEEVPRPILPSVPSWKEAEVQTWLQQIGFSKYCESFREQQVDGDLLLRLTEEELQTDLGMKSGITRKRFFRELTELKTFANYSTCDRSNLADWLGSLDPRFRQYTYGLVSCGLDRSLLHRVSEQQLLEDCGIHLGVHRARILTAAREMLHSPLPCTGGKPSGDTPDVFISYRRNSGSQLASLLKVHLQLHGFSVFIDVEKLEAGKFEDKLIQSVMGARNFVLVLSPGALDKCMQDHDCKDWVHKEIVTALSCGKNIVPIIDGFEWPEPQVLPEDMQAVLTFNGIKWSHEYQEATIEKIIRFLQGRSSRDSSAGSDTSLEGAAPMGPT

The first experiment addresses human SARM1(50-724) (Homo sapiens (Human), UniProt Q6SZW1). As to the kind of experiment: SARM1 NAD hydrolase biological assay (HPLC readout of NAD and NAM peak areas).
Conditions: not given
The class given is biochemical. The method, then:
The reaction was incubated at room temperature for 60 minutes and quenched with 20 μL of 0.4% formic acid. […] Total run time for each sample was 4 minutes. The run was isocratic with 1.5% methanol in 40 mM ammonium acetate pH 6.0. Samples were run at a flow rate of 0.8 ml/min at 55° C. Peak areas of NAD and NAM were determined using OpenLAB CDS (Chem Station edition) software. For dose-response, the compound was diluted serially 1:3 in DMSO and added to the reaction starting at a final compound concentration of 100 μM in 1% DMSO.
`N#CCCc1nc(Cc2ccncc2)c[nH]1` [Example 4, 3-(4-(Pyridin-4-ylmethyl)-1H-imidazol-2-yl)propanenitrile] had an IC50 of 1 to 10 µM.

Staying with this experiment, now noted: 40 nM human SARM1(50-724), 0.3 mM NMN, 20 μM NAD, 60 minutes at room temperature; class symbols; read-out: Average IC50.
For `O[C@@H](c1ncc(Cc2ccncc2)[nH]1)C(F)(F)F` (single isomer, unassigned) [Example 7], the IC50 is less than 1 µM.
Still for that read-out and setting: next, `O[C@H](c1nc(Cc2ccncc2)c[nH]1)c1cncs1` (single isomer, unassigned) [Example 20a]: less than 1 µM; `FC(F)(F)Cc1nc(Cc2ccncc2Cl)c[nH]1` [Example 27, 3-Chloro-4-((2-(2,2,2-trifluoroethyl)-1H-imidazol-4-yl)methyl)pyridine]: less than 1 µM.
Same read-out and setting: next, `OC(c1ccccn1)c1ncc(Cc2ccncc2)[nH]1` (racemic) [Example 35, (rac)-Pyridin-2-yl(5-(pyridin-4-ylmethyl)-1H-imidazol-2-yl)methanol]: 1 to 10 µM; `CNC(c1ncc(Cc2ccncc2)[nH]1)C(F)(F)F` (single isomer, unassigned) [Example 16]: 1 to 10 µM; `c1cc(Cc2c[nH]c(Cc3cncs3)n2)ccn1` [Example 6, 5-((4-(Pyridin-4-ylmethyl)-1H-imidazol-2-yl)methyl)thiazole]: less than 1 µM.
On the same count and under the same terms, the value for `N[C@H](c1nc(Cc2ccncc2)c[nH]1)C(F)(F)F` (single isomer, unassigned) [Example 15a] was less than 1 µM.
Regarding `O[C@H](c1ncc(Cc2ccncc2)[nH]1)C(F)(F)F` (single isomer, unassigned) [Example 7a], the IC50 was less than 1 µM.
`C[C@@H](c1ccncc1)c1c[nH]c([C@H](O)C(F)(F)F)n1` (single isomer, unassigned) [Example 24]: the IC50 is less than 1 µM.
Same read-out and setting: the value for `FC(F)(F)Cc1csc(Cc2ccncc2)n1` [Example 9, 2-(Pyridin-4-ylmethyl)-4-(2,2,2-trifluoroethyl)thiazole] was 1 to 10 µM; that for `FC(F)(F)Cc1nc(Cc2ccncc2)c[nH]1` [Example 1, 4-((2-(2,2,2-Trifluoroethyl)-1H-imidazol-4-yl)methyl)pyridine] was less than 1 µM; that for `FC(F)(F)Cc1nc(Cc2ccncc2)n[nH]1` [Example 8, 4-((5-(2,2,2-Trifluoroethyl)-1H-1,2,4-triazol-3-yl)methyl)pyridine] was 10 to 100 µM.
Still for that read-out and setting: the value for `Fc1cnccc1Cc1c[nH]c(CC(F)(F)F)n1` [Example 36, 3-Fluoro-4-((2-(2,2,2-trifluoroethyl)-1H-imidazol-4-yl)methyl)pyridine] was less than 1 µM; that for `Cc1cnccc1Cc1cnc([C@@H](O)c2cncs2)[nH]1` (single isomer, unassigned) [Example 30a] was 1 to 10 µM.
The same measure, in the same setting: the value for `C[C@H](c1ccncc1)c1c[nH]c(CC(F)(F)F)n1` (single isomer, unassigned) [Example 5b] was 1 to 10 µM; that for `OC(c1nc(Cc2ccncc2Cl)c[nH]1)C(F)(F)F` (racemic) [Example 23, (rac)-1-(4-((3-Chloropyridin-4-yl)methyl)-1H-imidazol-2-yl)-2,2,2-trifluoroethan-1-ol] was less than 1 µM; that for `C[C@](O)(c1ncc(Cc2ccncc2)[nH]1)C(F)(F)F` (single isomer, unassigned) [Example 32a] was 1 to 10 µM.
Consider `CO[C@@H](c1ncc(Cc2ccncc2)[nH]1)C(F)(F)F` (single isomer, unassigned) [Example 33], for which the half-maximal inhibitory concentration (IC50) was in the range of 1 to 10 µM.
Still for that read-out and setting: next, `OC(c1ncc(Cc2ccncc2)[nH]1)(c1cncs1)C(F)(F)F` (single isomer, unassigned) [Example 26]: 10 to 100 µM.
Consider `FC(F)(F)Cc1ncc(Cc2c(Cl)cncc2Cl)[nH]1` [Example 22, 3,5-Dichloro-4-((2-(2,2,2-trifluoroethyl)-1H-imidazol-5-yl)methyl)pyridine], for which the IC50 was 10 to 100 µM.
On the same count and under the same terms, the value for `O[C@@H](c1nc(Cc2ccncc2F)c[nH]1)C(F)(F)F` (single isomer, unassigned) [Example 38] was less than 1 µM; that for `O=C(c1ncc(Cc2ccncc2)[nH]1)C(F)(F)F` [Example 12, 2,2,2-Trifluoro-1-(5-(pyridin-4-ylmethyl)-1H-imidazol-2-yl)ethan-1-one hydrochloride] was less than 1 µM; that for `C[C@@](O)(c1ncc(Cc2ccncc2)[nH]1)C(F)(F)F` (single isomer, unassigned) [Example 32] was less than 1 µM.
Still for that read-out and setting: the value for `NC(c1nc(Cc2ccncc2)cs1)C(F)(F)F` (single isomer, unassigned) [Example 19] was 10 to 100 µM; that for `Cc1cnccc1Cc1c[nH]c(C(O)c2cncs2)n1` (racemic) [Example 21, (rac)-(5-((3-Methylpyridin-4-yl)methyl)-1H-imidazol-2-yl)(thiazol-5-yl)methanol] was 10 to 100 µM; that for `C[C@H](c1ccncc1)c1c[nH]c([C@@H](O)C(F)(F)F)n1` (single isomer, unassigned) [Example 24a] was 10 to 100 µM.
The same measure, in the same setting: next, `CN[C@H](c1ncc(Cc2ccncc2)[nH]1)C(F)(F)F` (single isomer, unassigned) [Example 16a]: 1 to 10 µM; `C[C@@H](c1ccncc1)c1c[nH]c(CC(F)(F)F)n1` (single isomer, unassigned) [Example 5a]: less than 1 µM; `COC(c1ncc(Cc2ccncc2)[nH]1)C(F)(F)F` (single isomer, unassigned) [Example 33a]: 1 to 10 µM.
For the compound `Cc1[nH]c(CC(F)(F)F)nc1Cc1ccncc1` [Example 14, 4-((5-Methyl-2-(2,2,2-trifluoroethyl)-1H-imidazol-4-yl)methyl)pyridine], the IC50 was 10 to 100 µM.
As for `Cc1cnccc1Cc1cnc([C@H](O)c2cncs2)[nH]1` (single isomer, unassigned) [Example 30], the IC50 lay in the range of 10 to 100 µM.
The same measure, in the same setting: next, `ON=C(c1ncc(Cc2ccncc2)[nH]1)C(F)(F)F` (mixture of isomers) [Example 13, (E/Z)-2,2,2-Trifluoro-1-(5-(pyridin-4-ylmethyl)-1H-imidazol-2-yl)ethan-1-one oxime]: 1 to 10 µM.
The same measure, in the same setting: the value for `OC(c1nc(Cc2ccncc2)c[nH]1)(C(F)(F)F)C(F)(F)F` [Example 39, 1,1,1,3,3,3-Hexafluoro-2-(4-(pyridin-4-ylmethyl)-1H-imidazol-2-yl)propan-2-ol] was 1 to 10 µM; that for `CN(C)[C@H](c1ncc(Cc2ccncc2)[nH]1)C(F)(F)F` (single isomer, unassigned) [Example 17a] was 1 to 10 µM.
The same measure, in the same setting: next, `Cc1cnccc1Cc1c[nH]c(C(O)C(F)(F)F)n1` (single isomer, unassigned) [Example 37]: 1 to 10 µM.

Staying with this experiment, now noted: 40 nM human SARM1(50-724), 0.3 mM NMN, 20 μM NAD, 60 minutes at room temperature; given as numeric bound; read-out: Average IC50.
For the compound `FC(F)(F)Cc1nc(Cc2ccnc(Cl)c2)c[nH]1` [Example 28, 2-Chloro-4-((2-(2,2,2-trifluoroethyl)-1H-imidazol-4-yl)methyl)pyridine], the IC50 was more than 50 µM.
As to `C[C@@H](c1ccncc1)c1c[nH]c([C@@H](O)C(F)(F)F)n1` (single isomer, unassigned) [Example 24c], the IC50 was more than 50 µM.
As for `Fc1cc(Cc2c[nH]c(CC(F)(F)F)n2)ccn1` [Example 29, 2-Fluoro-4-((2-(2,2,2-trifluoroethyl)-3H-imidazol-4-yl)methyl)pyridine], the IC50 was more than 50 µM.
